{
  "source": "patent US10519423B1",
  "about": "“High efficiency reprogramming of fibroblasts into cardiomyocytes” (The Regents of the University of Colorado, a body corporate, priority 2015, dated 2019)",
  "key": {"MEFs [1]": {"system": "MEFs", "assay": "Immunocytochemistry for cTnT and α-actinin in infected MEFs", "type": "cell-based, mouse", "conditions": "day 14, without or with A83-01", "experimental": "(§1) Fibroblasts were plated on tissue culture dishes pre-coated with SureCoat (Cellutron) at a density of ˜40 cells/mm^2 before transduction. The fibroblast growth medium was replaced with freshly made viral mixture containing polybrene (Sigma). Twenty-four hours later, fibroblasts were infected again with viral mixture containing polybrene. Twenty fours later, the viral medium was replaced with induction medium, composed of DMEM/199 (4:1) (Gibco), 10% FBS (Gemini), 5% horse serum(Gemini), antibiotics (Gibco), 1× non-essential amino acids (Gibco), 1× essential amino acids (Gibco), 1× B-27 (Gibco), 1× insulin-selenium-transferin (Gibco), 1× vitamin mixture (Gibco), and 1× sodium pyruvate (Gibco). Medium was changed every two-three days until cells were examined.\nCells were fixed in 2% PFA for 15 min on ice then washed with DPBS (Gibco) three times at RT. The cells were permeabilized in 0.5% Triton X-100 (made in PBS) for 20 min at RT. After washing the cells with DPBS (Gibco), cells were incubated with the primary antibody against α-actinin (Sigma A7811, 1:300), Connexin 43 (Sigma, C6219, 1:500), Troponin T (Thermo Scientific MS-245-P, 1:500), α-SMA (Santa Cruz Biotechnology, SC-32251, 1:800), Myl2 (Proteintech, 10906-1-AP, 1:200), or Myl7 (Proteintech, 17283-1-AP, 1:200) in 10% FBS(Gemini) in DPBS for 1 hour at RT. Cells were wash with DPBS three times, 5 min each. Cell were incubated with the secondary antibody (Alexa Fluor 555 Molecular Probes A21422, 1:1000) and Hoechest (Molecular Probes 33342, 1:5000) for 30 mins at RT."}, "MEFs [2]": {"system": "MEFs", "assay": "Intracellular staining for flow cytometry (cTnT, Myc) in retrovirus-infected MEFs", "type": "cell-based, mouse", "conditions": "for cTnThigh fraction: day 7", "experimental": "C57BL6 pregnant mice at E13 were order from Charles River's laboratory. Embryos at E14.5 were harvested and their internal organs and head were removed. The body below the liver was minced using blade to fine pieces. Minced embryos were incubated with 2 ml of 0.25% trypsinIl mM EDTA, Phenol Red (Gibco) for 40 mins at 37° C. with 5% CO2. Cells were suspended in 25 ml of growth medium (DMEM/Hi glucose (Hyclone) 10% FBS (Gemini), 1.1% Penicillin-Streptomycin (Gibco) and 1.1% GlutaMAX supplement (Gibco)) and then plated on a 15 cm dish. In 24 hours, the media was aspirated and new 25 ml of growth medium was added. In 72 hours, MEFs were harvested and stored for future use.\nas §1\nAdherent fibroblasts were washed with DPBS (Gibco). Cells were detached from culture dish by treatment with 0.25% Trypsin/EDTA (Gibco) for 3 min at 37° C. Cells were then washed with 4 ml of 5% FBS (Gemini) in DPBS filtered through a cell strainer and centrifuge at 1200 rpm×6 mins. Cells were washed with 500 ul of 1% BSA in DPBS. Cells were fixed with BD Cytofix/Cytoperm™ solution in 0.2 ml/1 million cells in 1.5 ml eppendorf tube for 20 min on ice. Cells were washed with 1 ml of BD perm/wash buffer and Centrifuged for 6 min at 1200 rpm. The supernatant was discarded; cells were washed again with 1 ml of BD Perm/wash buffer and left overnight at 4° C. The next day, Cells were centrifuged for 6 min at 1200 rpm, the supernatant discarded and 100 μl of Blocking buffer made with 5% goat, donkey serum (Sigma: G9023 and D9663) in Perm/wash buffer was added to the cells and incubated for 30 min at RT. A primary antibody: Mouse Troponin T (cTnT) antibody (Thermo Scientific, ms-295-p, 1:200), mouse anti-C-Myc antibody (BD Pharmingen, 551102, 1:200) in 100 μl BD Perm/Wash buffer was added to the cells and incubated for 1 hr at RT. One ml cold BD Perm/wash buffer was added to the cells and centrifuged for 6 min at 1200 rpm. […] Cells were re-suspended in 300 ul of 1% BSA/DPBS and then analyzed using FACS Caliber (BD Sciences) and FlowJo software."}},
  "data": [
    {"smiles": "Cc1cccc(-c2nn(C(=S)Nc3ccccc3)cc2-c2ccnc3ccccc23)n1", "note": "[A83-01]", "values": [
      {"measurement": "proportion of cTnT+ cells (immunostaining)", "setting": "MEFs [1]; GHMT2m-cultures of MEFs", "value": "~67", "unit": "%"},
      {"measurement": "proportion of α-actinin+ cells (immunostaining)", "setting": "MEFs [1]; GHMT2m-cultures of MEFs", "value": "~64", "unit": "%"},
      {"measurement": "proportion of cTnT+ cells (immunostaining)", "setting": "MEFs [1]; GHMT-cultures of MEFs", "value": "approximately 58%"},
      {"measurement": "proportion of α-actinin+ cells (immunostaining)", "setting": "MEFs [1]; GHMT-cultures of MEFs", "value": "approximately 57%"},
      {"measurement": "cTnThigh fraction", "setting": "MEFs [2]; GHMT2m-infected MEFs, alone or treated with A83-01 (0.5 μM, day 3 to day 7)", "value": "approximately 45.6%"},
      {"measurement": "cTnThigh fraction", "setting": "MEFs [2]; GHMT-infected MEFs, alone or treated with TGF-β1 (10 ng/ml) or A83-01 (0.5 μM, day 3 to day 7)", "value": "approximately 30.7%"},
      {"measurement": "induction of cTnT+ cells by the small molecule alone", "setting": "MEFs [2]; MEFs without reprogramming factors, flow cytometry", "value": "did not induce cTnT+ cells"}
    ]}
  ]
}
